ChEMBL document CHEMBL4152224, “The Identification of Potent, Selective, and Orally Available Inhibitors of Ataxia Telangiectasia Mutated (ATM) Kinase: The Discovery of AZD0156 (8-{6-[3-(Dimethylamino)propoxy]pyridin-3-yl}-3-methyl-1-(tetrahydro-2 H-pyran-4-yl)-1,3-dihydro-2 H-imidazo[4,5- c]quinolin-2-one)” (J Med Chem, 2018)
Activity calls are given as the source filed them. The rule behind the calls is not given here.

Tests used:
[1] = target: Serine-protein kinase ATM (Homo sapiens, UniProt Q13315)
[2] = Intrinsic clearance in human hepatocytes assessed per million cells
[3] = Intrinsic clearance in rat hepatocytes assessed per million cells
[4] = target: Serine/threonine-protein kinase ATR (Homo sapiens, UniProt Q13535)
Serine/threonine-protein kinase ATR, sequence (Q13535 whole entry): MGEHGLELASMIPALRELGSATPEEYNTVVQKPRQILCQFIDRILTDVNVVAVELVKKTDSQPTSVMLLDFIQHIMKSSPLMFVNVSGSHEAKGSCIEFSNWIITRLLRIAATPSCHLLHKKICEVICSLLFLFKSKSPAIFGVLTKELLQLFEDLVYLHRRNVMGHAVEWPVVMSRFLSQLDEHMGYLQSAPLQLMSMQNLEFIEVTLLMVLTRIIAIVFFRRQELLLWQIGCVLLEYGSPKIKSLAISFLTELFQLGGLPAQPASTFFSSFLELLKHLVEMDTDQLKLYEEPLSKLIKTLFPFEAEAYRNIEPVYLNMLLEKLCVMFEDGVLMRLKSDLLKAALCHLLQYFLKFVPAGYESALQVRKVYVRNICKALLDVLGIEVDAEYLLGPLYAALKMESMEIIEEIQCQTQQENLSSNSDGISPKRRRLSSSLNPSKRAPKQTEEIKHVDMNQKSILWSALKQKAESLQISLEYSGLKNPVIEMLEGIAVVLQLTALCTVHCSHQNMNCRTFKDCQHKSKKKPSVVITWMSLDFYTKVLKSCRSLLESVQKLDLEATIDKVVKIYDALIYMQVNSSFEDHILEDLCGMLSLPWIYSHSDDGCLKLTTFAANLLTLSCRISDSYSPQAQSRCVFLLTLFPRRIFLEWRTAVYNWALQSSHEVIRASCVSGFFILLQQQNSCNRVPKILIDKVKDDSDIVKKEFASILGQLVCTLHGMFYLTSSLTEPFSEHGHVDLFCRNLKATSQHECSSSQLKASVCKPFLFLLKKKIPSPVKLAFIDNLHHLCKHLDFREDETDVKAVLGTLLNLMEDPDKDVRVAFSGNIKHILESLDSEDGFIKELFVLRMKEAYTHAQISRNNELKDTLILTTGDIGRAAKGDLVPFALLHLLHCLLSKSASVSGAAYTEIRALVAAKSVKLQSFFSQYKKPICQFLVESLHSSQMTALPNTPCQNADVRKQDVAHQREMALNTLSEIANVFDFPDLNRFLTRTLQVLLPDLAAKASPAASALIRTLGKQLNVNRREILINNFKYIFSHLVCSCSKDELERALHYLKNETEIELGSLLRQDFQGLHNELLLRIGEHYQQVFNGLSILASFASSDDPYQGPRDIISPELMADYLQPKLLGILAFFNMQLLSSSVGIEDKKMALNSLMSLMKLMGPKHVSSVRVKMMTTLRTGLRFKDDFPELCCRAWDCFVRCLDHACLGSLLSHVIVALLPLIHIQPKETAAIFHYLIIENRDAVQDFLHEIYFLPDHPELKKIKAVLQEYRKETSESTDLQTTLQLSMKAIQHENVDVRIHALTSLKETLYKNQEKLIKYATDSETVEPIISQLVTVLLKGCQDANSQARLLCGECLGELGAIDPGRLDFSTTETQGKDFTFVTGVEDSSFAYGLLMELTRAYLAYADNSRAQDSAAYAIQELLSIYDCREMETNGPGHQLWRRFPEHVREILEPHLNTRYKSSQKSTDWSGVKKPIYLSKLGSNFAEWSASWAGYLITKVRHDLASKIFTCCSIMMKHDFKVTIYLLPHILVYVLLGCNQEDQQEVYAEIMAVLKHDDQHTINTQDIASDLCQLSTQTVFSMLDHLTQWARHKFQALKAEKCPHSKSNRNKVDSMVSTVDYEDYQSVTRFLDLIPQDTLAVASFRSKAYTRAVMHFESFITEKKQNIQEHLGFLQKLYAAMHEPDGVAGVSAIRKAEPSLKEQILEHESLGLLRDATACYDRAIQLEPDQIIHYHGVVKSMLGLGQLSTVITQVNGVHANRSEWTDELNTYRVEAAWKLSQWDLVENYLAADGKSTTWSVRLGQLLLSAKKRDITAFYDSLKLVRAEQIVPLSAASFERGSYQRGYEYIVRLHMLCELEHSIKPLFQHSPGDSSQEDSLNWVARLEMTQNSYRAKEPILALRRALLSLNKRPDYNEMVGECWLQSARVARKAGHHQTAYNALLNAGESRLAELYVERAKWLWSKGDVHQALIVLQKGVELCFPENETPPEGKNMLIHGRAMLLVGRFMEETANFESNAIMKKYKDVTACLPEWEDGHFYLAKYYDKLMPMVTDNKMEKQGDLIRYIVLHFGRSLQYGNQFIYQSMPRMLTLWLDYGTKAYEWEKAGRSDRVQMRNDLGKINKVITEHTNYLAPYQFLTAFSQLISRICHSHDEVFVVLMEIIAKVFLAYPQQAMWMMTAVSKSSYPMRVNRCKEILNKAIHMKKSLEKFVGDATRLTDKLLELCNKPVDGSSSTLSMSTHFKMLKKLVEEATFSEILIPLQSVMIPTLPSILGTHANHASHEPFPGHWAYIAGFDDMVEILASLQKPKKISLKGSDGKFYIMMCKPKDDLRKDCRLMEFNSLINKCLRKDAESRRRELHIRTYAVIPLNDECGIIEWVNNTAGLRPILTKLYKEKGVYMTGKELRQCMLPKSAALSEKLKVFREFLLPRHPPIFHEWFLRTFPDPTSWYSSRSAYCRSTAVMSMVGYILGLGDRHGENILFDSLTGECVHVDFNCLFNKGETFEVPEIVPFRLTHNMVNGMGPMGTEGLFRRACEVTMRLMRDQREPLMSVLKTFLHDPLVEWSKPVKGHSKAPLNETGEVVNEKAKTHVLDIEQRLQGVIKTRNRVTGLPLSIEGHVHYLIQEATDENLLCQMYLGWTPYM

[5] = Thermodynamic solubility of the compound in 0.1M aqueous phosphate buffer at pH 7.4 after 24 hrs by LC-UV analysis; format: physicochemical; settings: read-out: Therm_solubility
in vitro = settings: dog, MDCK-MDR1
Description: Efflux ratio of apparent permeability across basolateral to apical over apical to basolateral side in MDCK cells overexpressing MDR1

[6] = Apparent permeability across apical to basolateral side in MDCK cells overexpressing MDR1; format: ADME, cell-based, Canis lupus familiaris; settings: dog
[7] = target: Voltage-gated inwardly rectifying potassium channel KCNH2 (Homo sapiens, UniProt Q12809); test: Inhibition of human ERG by electrophysiology assay
[8] = Buffer/octanol partition coefficient, log D of the compound at pH 7.4 by shake flask method; format: physicochemical
[9] = Dissociation constant, pKa of the compound; format: physicochemical
Homo sapiens = test: Potentiation of […]-induced tumor regression against human HBCx-10 cells xenografted in immunocompromised mouse at 5 mg/kg, po qd administered on days 1 to 3 of weekly cycle; format: functional, organism-based
[10] = AUC (0 to 12 hrs) in patient with solid tumor at 120 mg, po bid by LC-MS/MS analysis; format: ADME, organism-based; parameters: dose 120 mg, time < 12 hr, route oral; settings: human, in vivo
[11] = Solubility of the compound in FaSSIF; format: physicochemical
[12] = Cmax in patient with solid tumor at 15 mg, po bid by LC-MS/MS analysis; format: ADME, organism-based; parameters: dose 15 mg, route oral; settings: human, in vivo
[13] = Apparent permeability across apical to basolateral side in human Caco2 cells; format: ADME, cell-based; settings: Caco-2
SW-620 [14] = test: Antitumor activity against human SW620 cells xenografted in immunocompromised mouse assessed as tumor regression at 20 mg/kg, po qd administered on days 2 to 4 of weekly cycle; format: functional, organism-based
SW-620 [15] = test: Potentiation of irinotecan-induced tumor regression against human SW620 cells xenografted in immunocompromised mouse at 20 mg/kg, po qd administered on days 2 to 4 of weekly cycle; format: functional, organism-based
[16] = Tmax in patient with solid tumor at 15 mg, po bid by LC-MS/MS analysis; format: ADME, organism-based; settings: human, in vivo
[17] = Cmax in patient with solid tumor at 120 mg, po bid by LC-MS/MS analysis; format: ADME, organism-based; parameters: dose 120 mg, route oral; settings: human, in vivo
[18] = AUC (0 to 12 hrs) in patient with solid tumor at 30 mg, po bid by LC-MS/MS analysis; format: ADME, organism-based; parameters: time < 12 hr, dose 30 mg, route oral; settings: human, in vivo
[19] = Solubility of the compound in simulated gastric fluid; format: physicochemical
Cytochrome P450 2D6 = Cytochrome P450 2D6 (Homo sapiens, UniProt P10635); test: Inhibition of human CYP2D6; format: ADME
Cytochrome P450 2D6, sequence (P10635 whole entry): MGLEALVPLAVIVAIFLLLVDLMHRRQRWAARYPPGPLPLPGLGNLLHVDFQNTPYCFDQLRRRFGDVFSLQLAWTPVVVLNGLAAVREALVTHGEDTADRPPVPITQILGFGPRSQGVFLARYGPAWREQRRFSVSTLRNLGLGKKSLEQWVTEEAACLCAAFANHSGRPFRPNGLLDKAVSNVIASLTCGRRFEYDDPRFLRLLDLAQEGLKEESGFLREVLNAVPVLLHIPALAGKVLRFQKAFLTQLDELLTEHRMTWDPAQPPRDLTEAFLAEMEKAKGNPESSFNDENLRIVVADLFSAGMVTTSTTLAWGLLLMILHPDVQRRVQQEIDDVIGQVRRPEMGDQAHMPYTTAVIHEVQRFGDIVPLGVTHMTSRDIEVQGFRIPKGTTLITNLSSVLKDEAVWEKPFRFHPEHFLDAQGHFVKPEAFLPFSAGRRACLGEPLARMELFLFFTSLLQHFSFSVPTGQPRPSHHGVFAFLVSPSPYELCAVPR

[20] = Volume of distribution at steady state in rat; format: ADME, organism-based; settings: in vivo, read-out: Vdss
[21] = target: Serine/threonine-protein kinase mTOR (Homo sapiens) (UniProt P42345); test: Inhibition of human m-TOR (L1382 to W2549 residues) expressed in mammalian expression system at 1 uM relative to control
Mus musculus [22] = test: Toxicity in immunocompromised mouse xenografted with human HBCx-10 cells at 5 mg/kg, po qd administered on days 1 to 3 of weekly cycle in presence of olaparib; format: organism-based; settings: in vivo
[23] = target: Phosphatidylinositol 4,5-bisphosphate 3-kinase catalytic subunit gamma isoform (Homo sapiens, UniProt P48736); test: Inhibition of human PI3Kgamma (S144 to A1102 residues) expressed in mammalian expression system
[24] = Apparent permeability across apical to basolateral side in human Caco2 cells at pH 6.5; format: ADME, cell-based; settings: Caco-2, pH 6.5
[25] = AUC (0 to 12 hrs) in patient with solid tumor at 15 mg, po bid by LC-MS/MS analysis; format: ADME, organism-based; parameters: time < 12 hr, dose 15 mg, route oral; settings: human, in vivo
[26] = Fraction unbound in rat plasma
[27] = Oral bioavailability in dog; format: ADME, organism-based, Canis lupus familiaris; settings: in vivo
[28] = Solubility of the compound in phosphate buffer at pH 6.5; format: physicochemical
[29] = Volume of distribution at steady state in dog; format: ADME, organism-based, Canis lupus familiaris; settings: in vivo, read-out: Vdss
[30] = AUC (0 to 12 hrs) in patient with solid tumor at 60 mg, po bid by LC-MS/MS analysis; format: ADME, organism-based; parameters: dose 60 mg, time < 12 hr, route oral; settings: human, in vivo
[31] = target: T1, Phosphatidylinositol 4,5-bisphosphate 3-kinase catalytic subunit delta isoform (Homo sapiens, UniProt O00329); test: Inhibition of human PI3Kdelta (R108 to Q1044 residues) expressed in mammalian expression system
T1 sequence (O00329 whole entry): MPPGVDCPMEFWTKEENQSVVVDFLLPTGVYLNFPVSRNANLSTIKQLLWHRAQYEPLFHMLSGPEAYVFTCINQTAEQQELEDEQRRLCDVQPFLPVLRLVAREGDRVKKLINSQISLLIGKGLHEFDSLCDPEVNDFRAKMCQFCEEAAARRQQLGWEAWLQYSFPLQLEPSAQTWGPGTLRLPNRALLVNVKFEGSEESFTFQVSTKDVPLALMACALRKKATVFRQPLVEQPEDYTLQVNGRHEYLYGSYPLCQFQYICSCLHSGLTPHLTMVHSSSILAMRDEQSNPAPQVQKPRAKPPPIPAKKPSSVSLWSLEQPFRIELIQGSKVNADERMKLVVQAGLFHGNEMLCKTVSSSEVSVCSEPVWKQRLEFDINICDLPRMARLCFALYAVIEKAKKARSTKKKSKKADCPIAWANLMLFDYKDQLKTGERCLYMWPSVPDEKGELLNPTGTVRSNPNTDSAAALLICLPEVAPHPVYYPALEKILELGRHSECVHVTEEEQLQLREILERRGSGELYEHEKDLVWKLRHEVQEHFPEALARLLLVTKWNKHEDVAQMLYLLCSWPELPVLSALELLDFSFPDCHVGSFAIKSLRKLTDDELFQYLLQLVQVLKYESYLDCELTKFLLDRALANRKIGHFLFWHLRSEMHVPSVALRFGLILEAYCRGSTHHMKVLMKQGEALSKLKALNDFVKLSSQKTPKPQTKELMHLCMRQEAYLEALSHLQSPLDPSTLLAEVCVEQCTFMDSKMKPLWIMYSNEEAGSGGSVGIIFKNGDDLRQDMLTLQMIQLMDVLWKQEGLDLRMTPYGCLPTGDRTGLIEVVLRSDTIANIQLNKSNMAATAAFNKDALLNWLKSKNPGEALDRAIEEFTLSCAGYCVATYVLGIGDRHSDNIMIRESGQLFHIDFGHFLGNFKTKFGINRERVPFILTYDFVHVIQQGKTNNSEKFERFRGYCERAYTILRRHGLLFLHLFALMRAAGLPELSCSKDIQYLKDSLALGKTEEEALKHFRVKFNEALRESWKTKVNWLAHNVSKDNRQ

[32] = Tmax in patient with solid tumor at 120 mg, po bid by LC-MS/MS analysis; format: ADME, organism-based; settings: human, in vivo
[33] = target: Phosphatidylinositol 4,5-bisphosphate 3-kinase catalytic subunit beta isoform (Homo sapiens, UniProt P42338); test: Inhibition of human PI3Kbeta (P118 to S1070 residues) expressed in mammalian expression system
Cytochrome P450 2C9 = Cytochrome P450 2C9 (Homo sapiens, UniProt P11712); test: Inhibition of human CYP2C9; format: ADME
Cytochrome P450 2C9, sequence (P11712 whole entry): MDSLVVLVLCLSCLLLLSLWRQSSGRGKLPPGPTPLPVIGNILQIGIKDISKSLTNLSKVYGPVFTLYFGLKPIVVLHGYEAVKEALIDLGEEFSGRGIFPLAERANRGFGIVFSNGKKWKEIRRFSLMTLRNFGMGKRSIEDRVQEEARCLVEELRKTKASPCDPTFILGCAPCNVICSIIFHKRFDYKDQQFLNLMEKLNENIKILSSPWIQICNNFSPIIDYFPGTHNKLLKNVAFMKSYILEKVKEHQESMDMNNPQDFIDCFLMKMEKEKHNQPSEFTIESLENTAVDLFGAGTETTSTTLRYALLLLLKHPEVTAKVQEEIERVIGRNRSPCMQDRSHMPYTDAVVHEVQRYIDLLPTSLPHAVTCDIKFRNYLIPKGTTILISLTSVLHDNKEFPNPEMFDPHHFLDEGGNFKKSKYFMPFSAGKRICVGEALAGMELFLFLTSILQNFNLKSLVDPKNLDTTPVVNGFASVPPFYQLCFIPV

Mus musculus [34] = test: Toxicity in immunocompromised mouse xenografted with human SW620 cells at 20 mg/kg, po qd administered on days 2 to 4 of weekly cycle in presence of irinotecan; format: organism-based; settings: in vivo
[35] = Tmax in patient with solid tumor at 60 mg, po bid by LC-MS/MS analysis; format: ADME, organism-based; settings: human, in vivo
[36] = Cmax in patient with solid tumor at 30 mg, po bid by LC-MS/MS analysis; format: ADME, organism-based; parameters: dose 30 mg, route oral; settings: human, in vivo
Cytochrome P450 3A4 = Cytochrome P450 3A4 (Homo sapiens, UniProt P08684); test: Inhibition of human CYP3A4; format: ADME
Cytochrome P450 3A4, sequence (P08684 whole entry): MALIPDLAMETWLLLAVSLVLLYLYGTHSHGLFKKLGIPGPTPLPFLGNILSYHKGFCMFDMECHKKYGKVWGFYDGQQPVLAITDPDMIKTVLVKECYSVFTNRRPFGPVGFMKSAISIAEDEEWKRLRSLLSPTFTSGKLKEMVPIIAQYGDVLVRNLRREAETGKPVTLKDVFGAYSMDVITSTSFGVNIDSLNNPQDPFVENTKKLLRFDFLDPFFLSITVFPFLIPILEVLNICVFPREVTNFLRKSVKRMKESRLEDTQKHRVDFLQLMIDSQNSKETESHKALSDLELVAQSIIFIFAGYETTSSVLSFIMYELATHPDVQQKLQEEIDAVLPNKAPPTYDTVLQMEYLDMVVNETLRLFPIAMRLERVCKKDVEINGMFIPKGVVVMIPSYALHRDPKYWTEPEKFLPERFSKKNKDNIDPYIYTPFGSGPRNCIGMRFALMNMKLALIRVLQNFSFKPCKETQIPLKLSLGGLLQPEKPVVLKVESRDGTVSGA

Cytochrome P450 2C19 = Cytochrome P450 2C19 (Homo sapiens, UniProt P33261); test: Inhibition of human CYP2C19; format: ADME
Cytochrome P450 2C19, sequence (P33261 whole entry): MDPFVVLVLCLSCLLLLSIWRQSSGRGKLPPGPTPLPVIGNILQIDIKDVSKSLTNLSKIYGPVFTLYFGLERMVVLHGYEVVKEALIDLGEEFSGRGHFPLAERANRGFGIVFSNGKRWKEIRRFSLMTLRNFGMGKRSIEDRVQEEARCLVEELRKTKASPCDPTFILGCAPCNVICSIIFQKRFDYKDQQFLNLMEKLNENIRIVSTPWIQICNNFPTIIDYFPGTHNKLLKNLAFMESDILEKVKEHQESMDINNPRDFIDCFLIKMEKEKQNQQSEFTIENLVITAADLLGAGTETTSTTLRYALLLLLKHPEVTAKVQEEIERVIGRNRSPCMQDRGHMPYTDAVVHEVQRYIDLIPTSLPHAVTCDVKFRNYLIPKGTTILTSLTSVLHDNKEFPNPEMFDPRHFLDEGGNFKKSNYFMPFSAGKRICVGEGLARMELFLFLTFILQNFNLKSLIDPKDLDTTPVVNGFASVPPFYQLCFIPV

[37] = Cmax in patient with solid tumor at 60 mg, po bid by LC-MS/MS analysis; format: ADME, organism-based; parameters: dose 60 mg, route oral; settings: human, in vivo
Cytochrome P450 1A2 = target: T2, Cytochrome P450 1A2 (Homo sapiens, UniProt P05177); test: Inhibition of human CYP1A2; format: ADME
T2 sequence (P05177 whole entry): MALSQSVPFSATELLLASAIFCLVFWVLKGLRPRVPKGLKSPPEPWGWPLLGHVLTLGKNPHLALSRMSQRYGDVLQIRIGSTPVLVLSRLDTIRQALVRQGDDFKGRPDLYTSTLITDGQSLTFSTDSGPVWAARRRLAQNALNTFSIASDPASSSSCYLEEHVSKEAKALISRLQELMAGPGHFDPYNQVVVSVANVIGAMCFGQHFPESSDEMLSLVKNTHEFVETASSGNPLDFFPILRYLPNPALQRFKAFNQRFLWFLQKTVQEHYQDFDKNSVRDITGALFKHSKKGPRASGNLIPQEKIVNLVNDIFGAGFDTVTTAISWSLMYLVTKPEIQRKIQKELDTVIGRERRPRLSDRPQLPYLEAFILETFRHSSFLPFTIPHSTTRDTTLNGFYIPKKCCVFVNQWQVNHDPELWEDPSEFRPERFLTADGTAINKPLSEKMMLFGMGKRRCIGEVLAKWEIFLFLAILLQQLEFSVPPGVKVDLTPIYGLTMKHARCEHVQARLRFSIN

[38] = Tmax in patient with solid tumor at 30 mg, po bid by LC-MS/MS analysis; format: ADME, organism-based; settings: human, in vivo
[39] = Oral bioavailability in rat; format: ADME, organism-based; settings: in vivo

CO[C@H]1C[C@@H](n2c(=O)n(C)c3cnc4cc(F)c(-c5ccc(OCCN(C)C)nc5)cc4c32)C1
IC50 [1]: 23 nM
hepatocyte CLint [2]: 8.3 µL/min/1e6 cells
hepatocyte CLint [3]: 12 µL/min/1e6 cells
IC50 [4]: > 30000 nM
solubility thermodynamic at 24 h [5]: > 1000 µM
efflux ratio (in vitro): 1.6
Papp A→B [6]: 16 ×10⁻⁶ cm/s
IC50 [7]: > 33000 nM
logD [8]: 2
pKa [9]: 8.5

CN(C)CCCOc1ccc(-c2ccc3ncc4c(c3c2)n(C2CCOCC2)c(=O)n4C)cn1
Activity (Homo sapiens): Active
AUC at 12 h [10]: 330 ng·h/mL
solubility [11]: > 5000 µg/mL
Cmax [12]: 6.67 ng/mL
Papp A→B [13]: 5.6 ×10⁻⁶ cm/s
Activity (SW-620 [14]): inactive
Activity (SW-620 [15]): Active
Tmax [16]: 2 h
Cmax [17]: 58.8 ng/mL
AUC at 12 h [18]: 105 ng·h/mL
solubility [19]: > 5000 µg/mL
IC50 (Cytochrome P450 2D6): > 30000 nM
Vd [20]: 4.3 L/kg
inhibition [21]: 93%
solubility thermodynamic at 24 h [5]: > 800 µM
Activity (Mus musculus [22]): Non-Toxic
IC50 [23]: 1100 nM
Papp A→B [24]: 19 ×10⁻⁶ cm/s
AUC at 12 h [25]: 40.4 ng·h/mL
fraction unbound [26]: 0.11
bioavailability [27]: 54%
solubility [28]: > 5000 µg/mL
Vd [29]: 17.6 L/kg
AUC at 12 h [30]: 206 ng·h/mL
Papp A→B [6]: 6.6 ×10⁻⁶ cm/s
IC50 [31]: 270 nM
Tmax [32]: 2.5 h
IC50 [33]: 1800 nM
IC50 (Cytochrome P450 2C9): > 30000 nM
Activity (Mus musculus [34]): Non-Toxic
Tmax [35]: 2.5 h
logD [8]: 1.5
Cmax [36]: 17.5 ng/mL
IC50 (Cytochrome P450 3A4): > 30000 nM
IC50 (Cytochrome P450 2C19): > 30000 nM
Cmax [37]: 39.6 ng/mL
IC50 (Cytochrome P450 1A2): > 30000 nM
Tmax [38]: 2 h
bioavailability [39]: 57%
pKa [9]: 9.6
